Measured values published in article PMC4503722, “Novel Phenotypic Outcomes Identified for a Public Collection of Approved Drugs from a Publicly Accessible Panel of Assays” (PLoS ONE, 2015).
Like-named read-outs stand apart in the source and are kept apart here.

Assays:
hKDR = molecular target: T1, hKDR (Homo sapiens, UniProt P35968); experiment: Cerep LANCE kinase assay hKDR (S1 assay 32); assay type: biochemical; settings: for hKDR LANCE IC50/EC50: assay number 32
T1 construct: purchased Cerep (LANCE kinase assay platform, contract assay)
T1 sequence (P35968 20-1356): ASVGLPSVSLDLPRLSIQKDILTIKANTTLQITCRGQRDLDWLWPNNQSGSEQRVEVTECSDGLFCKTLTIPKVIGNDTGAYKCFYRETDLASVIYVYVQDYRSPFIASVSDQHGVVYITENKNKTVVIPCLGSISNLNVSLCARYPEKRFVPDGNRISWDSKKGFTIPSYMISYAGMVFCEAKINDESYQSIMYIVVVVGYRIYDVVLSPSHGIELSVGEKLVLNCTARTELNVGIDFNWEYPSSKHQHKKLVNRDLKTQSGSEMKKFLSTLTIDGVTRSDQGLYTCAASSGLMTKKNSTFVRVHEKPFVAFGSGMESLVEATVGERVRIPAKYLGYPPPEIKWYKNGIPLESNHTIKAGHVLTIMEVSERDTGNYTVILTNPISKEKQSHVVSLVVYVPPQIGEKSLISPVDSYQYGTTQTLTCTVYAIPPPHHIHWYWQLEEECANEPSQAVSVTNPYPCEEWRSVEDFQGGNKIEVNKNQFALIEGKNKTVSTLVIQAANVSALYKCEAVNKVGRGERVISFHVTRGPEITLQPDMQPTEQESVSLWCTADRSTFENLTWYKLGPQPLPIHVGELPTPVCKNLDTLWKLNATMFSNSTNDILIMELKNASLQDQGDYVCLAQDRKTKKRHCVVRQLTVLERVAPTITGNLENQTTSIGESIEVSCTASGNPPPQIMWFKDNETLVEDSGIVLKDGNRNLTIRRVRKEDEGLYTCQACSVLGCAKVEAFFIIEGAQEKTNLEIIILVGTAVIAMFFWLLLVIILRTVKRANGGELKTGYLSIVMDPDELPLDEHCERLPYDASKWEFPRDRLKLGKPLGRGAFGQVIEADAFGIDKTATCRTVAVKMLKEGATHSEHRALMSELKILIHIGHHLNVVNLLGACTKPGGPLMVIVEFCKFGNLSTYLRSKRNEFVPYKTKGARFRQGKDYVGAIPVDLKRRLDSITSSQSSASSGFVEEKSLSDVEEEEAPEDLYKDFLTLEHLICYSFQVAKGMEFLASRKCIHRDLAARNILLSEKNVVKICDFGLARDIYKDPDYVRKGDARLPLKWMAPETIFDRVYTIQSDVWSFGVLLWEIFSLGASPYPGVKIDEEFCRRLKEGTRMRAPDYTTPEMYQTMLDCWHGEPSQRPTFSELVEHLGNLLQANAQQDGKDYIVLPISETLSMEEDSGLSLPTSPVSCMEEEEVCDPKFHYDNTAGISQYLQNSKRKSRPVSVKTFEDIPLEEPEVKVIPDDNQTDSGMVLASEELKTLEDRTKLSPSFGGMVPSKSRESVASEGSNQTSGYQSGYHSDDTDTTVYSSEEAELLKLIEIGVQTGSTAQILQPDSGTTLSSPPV

hFLT3 = molecular target: T2, hFLT3 (Homo sapiens, UniProt P36888); experiment: Cerep LANCE kinase assay hFLT3 (S1 assay 35); assay type: biochemical
T2 construct: purchased Cerep (LANCE kinase assay platform, contract assay)
T2 sequence (P36888 27-993): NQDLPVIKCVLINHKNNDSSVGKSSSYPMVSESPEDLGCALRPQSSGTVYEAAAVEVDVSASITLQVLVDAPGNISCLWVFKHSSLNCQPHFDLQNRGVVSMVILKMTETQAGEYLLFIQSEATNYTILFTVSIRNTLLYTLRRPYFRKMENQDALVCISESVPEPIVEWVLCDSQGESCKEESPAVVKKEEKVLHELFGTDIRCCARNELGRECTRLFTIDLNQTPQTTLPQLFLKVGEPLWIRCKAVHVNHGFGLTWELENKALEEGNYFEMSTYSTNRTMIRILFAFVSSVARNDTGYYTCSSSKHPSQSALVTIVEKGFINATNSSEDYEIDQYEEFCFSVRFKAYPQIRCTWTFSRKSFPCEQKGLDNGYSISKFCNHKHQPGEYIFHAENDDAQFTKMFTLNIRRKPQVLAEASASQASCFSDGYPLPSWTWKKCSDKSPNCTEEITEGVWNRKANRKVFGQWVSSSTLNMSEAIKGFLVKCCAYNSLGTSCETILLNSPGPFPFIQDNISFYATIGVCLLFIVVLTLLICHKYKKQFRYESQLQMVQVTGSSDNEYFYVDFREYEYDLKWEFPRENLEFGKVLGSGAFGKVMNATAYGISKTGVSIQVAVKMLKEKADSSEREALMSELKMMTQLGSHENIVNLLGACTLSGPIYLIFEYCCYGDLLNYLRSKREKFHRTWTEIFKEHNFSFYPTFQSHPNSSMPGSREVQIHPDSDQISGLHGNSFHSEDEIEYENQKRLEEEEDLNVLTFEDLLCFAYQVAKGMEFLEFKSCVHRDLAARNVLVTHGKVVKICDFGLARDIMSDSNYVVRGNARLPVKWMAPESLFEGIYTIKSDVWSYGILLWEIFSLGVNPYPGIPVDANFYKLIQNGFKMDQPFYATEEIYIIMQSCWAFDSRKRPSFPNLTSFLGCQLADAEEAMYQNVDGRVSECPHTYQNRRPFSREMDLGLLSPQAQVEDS

[1] = tested on: endothelial tube formation in co-cultures of ECFCs and ADSCs treated with VEGF; experiment: cells; assay type: cell-based, human
HeLa cells = experiment: cells; assay type: cell-based;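 on Hela CellCycMod PI 4N summarized IC50: value tracks stimulation of 4N DNA content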
hGSK3b = molecular target: T3, hGSK3b (Homo sapiens, UniProt P49841); experiment: Cerep LANCE kinase assay hGSK3b (S1 assay 34); assay type: biochemical
T3 construct: purchased Cerep (LANCE kinase assay platform, contract assay)
T3 sequence (P49841 whole entry): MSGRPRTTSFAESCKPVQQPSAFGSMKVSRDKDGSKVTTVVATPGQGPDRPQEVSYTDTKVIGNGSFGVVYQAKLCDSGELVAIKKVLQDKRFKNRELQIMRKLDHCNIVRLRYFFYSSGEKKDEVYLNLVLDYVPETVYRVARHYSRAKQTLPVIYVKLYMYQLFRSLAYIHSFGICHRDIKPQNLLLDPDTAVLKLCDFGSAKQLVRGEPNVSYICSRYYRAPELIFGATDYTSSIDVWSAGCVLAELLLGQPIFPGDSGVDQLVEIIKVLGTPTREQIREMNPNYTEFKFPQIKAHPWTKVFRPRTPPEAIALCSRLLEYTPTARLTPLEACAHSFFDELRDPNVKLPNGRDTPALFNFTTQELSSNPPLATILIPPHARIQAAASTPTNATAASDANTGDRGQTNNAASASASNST

hJAK2 = molecular target: T4, hJAK2 (Homo sapiens, UniProt O60674); experiment: Cerep LANCE kinase assay hJAK2 (S1 assay 33); assay type: biochemical
T4 construct: purchased Cerep (LANCE kinase assay platform, contract assay)
T4 sequence (O60674 whole entry): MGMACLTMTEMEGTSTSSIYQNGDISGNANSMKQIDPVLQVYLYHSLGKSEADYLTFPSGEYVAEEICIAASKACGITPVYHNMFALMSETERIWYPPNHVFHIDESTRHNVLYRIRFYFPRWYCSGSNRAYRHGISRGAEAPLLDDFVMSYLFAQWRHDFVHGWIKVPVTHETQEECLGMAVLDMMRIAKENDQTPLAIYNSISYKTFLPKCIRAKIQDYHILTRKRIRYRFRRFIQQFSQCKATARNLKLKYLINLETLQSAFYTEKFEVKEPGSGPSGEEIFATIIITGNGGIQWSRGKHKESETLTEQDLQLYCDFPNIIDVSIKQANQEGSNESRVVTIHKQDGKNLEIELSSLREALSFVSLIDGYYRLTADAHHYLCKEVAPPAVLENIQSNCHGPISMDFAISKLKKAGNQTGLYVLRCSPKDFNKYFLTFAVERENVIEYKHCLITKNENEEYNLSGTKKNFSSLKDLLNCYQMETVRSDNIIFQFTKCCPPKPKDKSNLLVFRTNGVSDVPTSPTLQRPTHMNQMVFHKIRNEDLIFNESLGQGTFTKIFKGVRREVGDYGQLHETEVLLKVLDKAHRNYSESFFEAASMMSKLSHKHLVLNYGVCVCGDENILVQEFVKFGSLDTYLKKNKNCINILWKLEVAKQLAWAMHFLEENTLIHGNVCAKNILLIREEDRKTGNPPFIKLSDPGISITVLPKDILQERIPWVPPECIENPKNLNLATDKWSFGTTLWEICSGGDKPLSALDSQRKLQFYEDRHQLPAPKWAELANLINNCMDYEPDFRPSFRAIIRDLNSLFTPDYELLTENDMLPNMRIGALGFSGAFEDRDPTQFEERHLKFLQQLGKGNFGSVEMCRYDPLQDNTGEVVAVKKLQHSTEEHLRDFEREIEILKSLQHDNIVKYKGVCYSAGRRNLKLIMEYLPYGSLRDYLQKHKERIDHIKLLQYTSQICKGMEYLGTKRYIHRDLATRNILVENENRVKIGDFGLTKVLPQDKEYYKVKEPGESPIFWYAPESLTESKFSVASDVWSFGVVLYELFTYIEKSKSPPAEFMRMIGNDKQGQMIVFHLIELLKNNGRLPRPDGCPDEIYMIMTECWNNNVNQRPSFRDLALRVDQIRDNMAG

[2] = tested on: ECFC/ADSC co-culture cell nuclei number
hp70S6K1 (RPS6KB1) = molecular target: T5, hp70S6K1 (RPS6KB1) (Homo sapiens, UniProt P23443); experiment: Cerep LANCE kinase assay hp70S6K1 (S1 assay 31); assay type: biochemical
T5 construct: purchased Cerep (LANCE kinase assay platform, contract assay)
T5 sequence (P23443 whole entry): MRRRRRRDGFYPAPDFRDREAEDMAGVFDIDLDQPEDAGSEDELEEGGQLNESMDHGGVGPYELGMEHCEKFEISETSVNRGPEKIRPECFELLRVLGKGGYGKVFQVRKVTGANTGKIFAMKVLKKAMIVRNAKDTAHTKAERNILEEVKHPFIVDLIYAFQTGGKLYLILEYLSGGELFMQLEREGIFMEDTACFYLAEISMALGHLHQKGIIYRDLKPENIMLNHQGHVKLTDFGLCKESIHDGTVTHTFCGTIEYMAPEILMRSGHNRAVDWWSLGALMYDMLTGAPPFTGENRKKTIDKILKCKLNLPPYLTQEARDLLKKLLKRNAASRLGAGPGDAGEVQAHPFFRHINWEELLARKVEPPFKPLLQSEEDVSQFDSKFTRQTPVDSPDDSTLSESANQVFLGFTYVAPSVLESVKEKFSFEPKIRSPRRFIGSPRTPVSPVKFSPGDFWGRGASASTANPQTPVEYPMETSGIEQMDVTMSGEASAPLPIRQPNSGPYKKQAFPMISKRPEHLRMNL

HT-29 = experiment: cells; assay type: cell-based; settings: assay number 28
HCT116 = experiment: cells; assay type: cell-based
Colo320 = experiment: cells; assay type: cell-based
RKO = experiment: cells; assay type: cell-based; settings: assay number 29
[3] = tested on: HCT116 cells treated with a GSK3β inhibitor; experiment: cells; assay type: cell-based
SNU-C1 = experiment: cells; assay type: cell-based; settings: assay number 30, basal
DLD-1 = experiment: cells; assay type: cell-based
SW480 = experiment: cells; assay type: cell-based; settings: assay number 24
[4] = tested on: nuclear β-catenin in C2C12 cells; experiment: cells; assay type: cell-based; settings: Mus musculus, C2C12, read-out: Wnt Pathway
INS-1E cells = experiment: cells; assay type: cell-based, rat; settings: Rattus norvegicus, INS-1E, read-out: Insulin Secretion
NCI-H716 cells = experiment: cells; assay type: cell-based, Human; settings: Homo sapiens, NCI-H716, read-out: GLP 1 Secretion
[5] = kinase assay, read-out: p70S6K1

| SMILES | hKDR LANCE IC50/EC50 (hKDR) [µM] | hFLT3 LANCE IC50/EC50 (hFLT3; assay number 35) [µM] | VEGF_ADSC\ECFC Angio CD31 TubeArea IC50/EC50 [1] [µM] | Hela CellCycMod PI 2N IC50/EC50 (HeLa cells; assay number 14, 2N) [µM] | Hela CellCycMod PI 4N IC50/EC50 (HeLa cells; assay number 16, 4N) [µM] | Hela CellCycMod PI MI IC50/EC50 (HeLa cells; assay number 17, MI) [µM] | Hela CellCycMod PI Cell Number IC50/EC50 (HeLa cells; assay number 18, cell number) [µM] | hGSK3b LANCE IC50/EC50 (hGSK3b; assay number 34) [µM] | hJAK2 LANCE IC50/EC50 (hJAK2; assay number 33) [µM] | VEGF_ADSC\ECFC Angio Hoechst NucArea IC50/EC50 [2] [µM] | hp70S6K1 LANCE IC50/EC50 (hp70S6K1 (RPS6KB1); assay number 31) [µM] | IC50 (hKDR) [µM] | IC50 (hFLT3; kinase assay, read-out: FLT3) [µM] | IC50 (hGSK3b; kinase assay, read-out: GSK3b) [µM] | IC50 (hp70S6K1 (RPS6KB1); [5]) [µM] | Basal_Viability ATP HCT116 IC50/EC50 (HCT116; assay number 25, basal) [µM] | Hela CellCycMod PI S Phase IC50/EC50 (HeLa cells; assay number 15, S phase) [µM] | also measured |
| --- | --- | --- | --- | --- | --- | --- | --- | --- | --- | --- | --- | --- | --- | --- | --- | --- | --- | --- |
| C[C@@H]1C[C@@H]([C@H](O)CC2CC(=O)NC(=O)C2)C(=O)[C@@H](C)C1 [NCGC00169964-05] | > 20 | > 20 | 1.1486 | > 10 | > 10 | > 10 | 0.5421 | > 20 | > 20 | > 10 | > 20 | – | – | – | – | – | – | – |
| O=C(CCCCCCC(=O)Nc1ccccc1)NO [vorinostat] | – | – | – | – | – | – | – | – | – | – | – | > 20 | > 20 | > 20 | > 20 | – | – | IC50 (hJAK2; kinase assay, read-out: JAK2): > 20 µM |
| CCCCCCCCCCCCCCCC[n+]1ccccc1 [NCGC00091023-06] | – | – | – | – | – | – | – | – | – | – | – | – | – | – | – | – | – | IC50 (HT-29; basal, read-out: Basal_Viability ATP HT-29 summarized IC50): 2.29 µM; IC50 (HCT116; assay number 25, basal, read-out: Basal_Viability ATP HCT116 summarized IC50): 1.19 µM; IC50 (Colo320; assay number 27, basal, read-out: Basal_Viability ATP Colo 320 summarized IC50): 1.64 µM; IC50 (hFLT3; assay number 35, read-out: hFLT3 LANCE summarized IC50): > 20 µM; IC50 (RKO; basal, read-out: Basal_Viability ATP RKO summarized IC50): 1.27 µM; IC50 ([3]; assay number 26, GSK3b inhibitor pretreated, read-out: GSK3b inh pretreated_Viability ATP HCT116 summarized IC50): 2.29 µM; IC50 (SNU-C1; read-out: Basal_Viability ATP SNU-C1 summarized IC50): 0.934 µM; IC50 (HeLa cells; assay number 14, 2N, read-out: Hela CellCycMod PI 2N summarized IC50): 1.25 µM; IC50 (HeLa cells; assay number 15, S phase, read-out: Hela CellCycMod PI S Phase summarized IC50): > 10 µM; IC50 (HeLa cells; assay number 16, 4N, read-out: Hela CellCycMod PI 4N summarized IC50): > 10 µM; IC50 (HeLa cells; assay number 17, MI, read-out: Hela CellCycMod PI MI summarized IC50): 0.515 µM; IC50 (HeLa cells; assay number 18, cell number, read-out: Hela CellCycMod PI Cell Number summarized IC50): 0.405 µM; IC50 (hGSK3b; assay number 34, read-out: hGSK3b LANCE summarized IC50): > 20 µM; IC50 (hJAK2; assay number 33, read-out: hJAK2 LANCE summarized IC50): > 20 µM; IC50 ([2]; read-out: VEGF_ADSC\ECFC Angio Hoechst NucArea summarized IC50): 3.01 µM; IC50 (DLD-1; assay number 23, basal, read-out: Basal_Viability ATP DLD-1 summarized IC50): 1.93 µM; IC50 (SW480; basal, read-out: Basal_Viability ATP SW480 summarized IC50): 1.61 µM; IC50 (hp70S6K1 (RPS6KB1); assay number 31, read-out: hp70S6K1 LANCE summarized IC50): > 20 µM |
| CC(C)(C)C1CCC(CC2=C(O)c3ccccc3C(=O)C2=O)CC1 (stereo not drawn) [NCGC00253624-01] | > 20 | > 20 | 1.9625 | > 10 | > 10 | > 10 | > 10 | > 20 | > 20 | > 10 | > 20 | – | – | – | – | 0.2268 | > 10 | Basal_Viability ATP HT-29 IC50/EC50 (HT-29): 3.3906 µM; Basal_Viability ATP Colo 320 IC50/EC50 (Colo320; assay number 27): 0.2548 µM; Basal_Viability ATP RKO IC50/EC50 (RKO): 0.1329 µM; Basal_Viability ATP DLD-1 IC50/EC50 (DLD-1; assay number 23): 0.2185 µM; Basal_Viability ATP SW480 IC50/EC50 (SW480): 0.2047 µM |
| COc1ccc(-c2ccc3cc(C(=O)O)ccc3c2)cc1C12CC3CC(CC(C3)C1)C2 [NCGC00164617-04] | 7.1 | > 20 | 0.5236 | > 10 | > 10 | > 10 | 5.4943 | 7.25 | 5.57 | > 10 | > 20 | – | – | – | – | 0.5897 | > 10 | Basal_Viability ATP HT-29 IC50/EC50 (HT-29; basal): 1.1248 µM; Basal_Viability ATP Colo 320 IC50/EC50 (Colo320; assay number 27, basal): 0.7871 µM; Basal_Viability ATP RKO IC50/EC50 (RKO; basal): 0.4435 µM; Basal_Viability ATP SNU-C1 IC50/EC50 (SNU-C1): 1.7798 µM; Basal_Viability ATP DLD-1 IC50/EC50 (DLD-1; assay number 23, basal): 0.5971 µM; Basal_Viability ATP SW480 IC50/EC50 (SW480; basal): 0.4051 µM |
| O=C(Nc1ccc([N+](=O)[O-])cc1Cl)c1cc(Cl)ccc1O [Niclosamide] | – | – | – | – | – | – | – | – | – | – | – | > 20 | > 20 | > 20 | > 20 | – | – | EC50 [4]: 1.57 µM; IC50 (HCT116; Homo sapiens, HCT-116, read-out: Basal_Viability ATP HCT116): 0.00144 µM; IC50 (Colo320; Homo sapiens, COLO 320, read-out: Basal_Viability ATP Colo 320): 0.00826 µM; EC50 (INS-1E cells): > 10 µM; IC50 ([3]; Homo sapiens, HCT-116, read-out: GSK3b inh pretreated_Viability ATP HCT116): 0.00295 µM; IC50 ([1]; Homo sapiens, read-out: Anti-Angiogenesis): 0.112 µM; EC50 (HeLa cells; Homo sapiens, HeLa, read-out: CellCycle G2/M): > 10 µM; EC50 (NCI-H716 cells): > 10 µM; IC50 (DLD-1; Homo sapiens, DLD-1, read-out: Basal_Viability ATP DLD-1): 0.00349 µM |
